The values below are quoted from earlier work in patent publication US20260014182A1, “METHOD OF TREATING CANCER” (M.T.3, Inc., priority 2019, published 2026).

This series deals with angiogenesis. The settings on record: in-vitro test, used with radiation.
On to `CCCCCCCCCCCCCCCCCCCCCC(=O)OCCCO[C@H]1O[C@H](CS(=O)(=O)[O-])[C@@H](O)[C@H](O)[C@H]1O.[Na+]` [αSQAP C22:0], for which the angiogenesis result was “inhibited”.

With `CCCCCCCCCC(=O)OCCCO[C@H]1O[C@H](CS(=O)(=O)[O-])[C@@H](O)[C@H](O)[C@H]1O.[Na+]` [αSQAP C10:0], the angiogenesis result is reported as “inhibited”.

Turning to `CCCCCCCCCCCCCC(=O)OCCCO[C@H]1O[C@H](CS(=O)(=O)[O-])[C@@H](O)[C@H](O)[C@H]1O.[Na+]` [αSQAP C14:0], the angiogenesis result is given as “inhibited”.

In the case of `CCCCCCCCCCCCCCCCCC(=O)OCCCO[C@@H]1O[C@H](CS(=O)(=O)[O-])[C@@H](O)[C@H](O)[C@H]1O.[Na+]` [βSQAP C18:0], the angiogenesis result is recorded as “inhibited”.
